Laboratory results published in patent US10273222B2 (CELGENE QUANTICEL RESEARCH, INC., priority 2013, dated 2019).

What was measured:
Format in all cases: biochemical
JMJD2C = JMJD2C (Homo sapiens (Human), UniProt Q9H3R0); assay: JMJD2C in vitro enzyme inhibition assay (TR-FRET)
JMJD2A = JMJD2A (Homo sapiens (Human), UniProt O75164); assay: JMJD2A in vitro enzyme inhibition assay (TR-FRET)
Description: This assay determines the ability of a test compound to inhibit Jarid1A, Jarid1B, JMJD2C, and JMJD2A demethylase activity. […] Baculovirus expressed JMJD2A (GenBank Accession #NM_014663, AA 1-350) was purchased from BPS Bioscience (Cat#50123).
The ability of test compounds to inhibit the activity of JMJD2A was determined in 384-well plate format under the following reaction conditions: 2 nM JMJD2A, 300 nM H3K9me3-biotin labeled peptide (Anaspec cat #64360), 2 μM alpha-ketoglutaric acid in assay buffer of 50 mM HEPES, pH7.3, 0.005% Brij35, 0.5 mM TCEP, 0.2 mg/ml BSA, 50 μM sodium L-ascorbate, and 2 μM ammonium iron(II) sulfate. Reaction product was determined quantitatively by TR-FRET after the addition of detection reagent Phycolink Streptavidin-allophycocyanin (Prozyme) and Europium-anti-di-methylated histone H3 lysine 9 (H3K9me2) antibody (PerkinElmer) in the presence of 5 mM EDTA in LANCE detection buffer (PerkinElmer) at a final concentration of 50 nM and 1 nM, respectively.
The assay reaction was initiated by the following: 2 μl of the mixture of 900 nM H3K9me3-biotin labeled peptide and 6 μM alpha-ketoglutaric acid with 2 μl of 11-point serial diluted inhibitor in 3% DMSO were added to each well of plate, followed by the addition of 2 μl of 6 nM JMJD2A to initiate the reaction. The reaction mixture was incubated at room temperature for 30 minutes, and terminated by the addition of 6 μl of 5 mM EDTA in LANCE detection buffer containing 100 nM Phycolink Streptavidin-allophycocyanin and 2 nM Europium-anti-H3K9me2 antibody. Plates were read by EnVisionMultilabel Reader in TR-FRET mode (excitation at 320 nm, emission at 615 nm and 665 nm) after 1 hour incubation at room temperature. A ratio was calculated (665/615) for each well and fitted to determine inhibition constant (IC50).

Jarid1A = Jarid1A (Homo sapiens (Human), UniProt P29375); assay: Jarid1A in vitro enzyme inhibition assay (TR-FRET)
Jarid1A, sequence (P29375 1-1090): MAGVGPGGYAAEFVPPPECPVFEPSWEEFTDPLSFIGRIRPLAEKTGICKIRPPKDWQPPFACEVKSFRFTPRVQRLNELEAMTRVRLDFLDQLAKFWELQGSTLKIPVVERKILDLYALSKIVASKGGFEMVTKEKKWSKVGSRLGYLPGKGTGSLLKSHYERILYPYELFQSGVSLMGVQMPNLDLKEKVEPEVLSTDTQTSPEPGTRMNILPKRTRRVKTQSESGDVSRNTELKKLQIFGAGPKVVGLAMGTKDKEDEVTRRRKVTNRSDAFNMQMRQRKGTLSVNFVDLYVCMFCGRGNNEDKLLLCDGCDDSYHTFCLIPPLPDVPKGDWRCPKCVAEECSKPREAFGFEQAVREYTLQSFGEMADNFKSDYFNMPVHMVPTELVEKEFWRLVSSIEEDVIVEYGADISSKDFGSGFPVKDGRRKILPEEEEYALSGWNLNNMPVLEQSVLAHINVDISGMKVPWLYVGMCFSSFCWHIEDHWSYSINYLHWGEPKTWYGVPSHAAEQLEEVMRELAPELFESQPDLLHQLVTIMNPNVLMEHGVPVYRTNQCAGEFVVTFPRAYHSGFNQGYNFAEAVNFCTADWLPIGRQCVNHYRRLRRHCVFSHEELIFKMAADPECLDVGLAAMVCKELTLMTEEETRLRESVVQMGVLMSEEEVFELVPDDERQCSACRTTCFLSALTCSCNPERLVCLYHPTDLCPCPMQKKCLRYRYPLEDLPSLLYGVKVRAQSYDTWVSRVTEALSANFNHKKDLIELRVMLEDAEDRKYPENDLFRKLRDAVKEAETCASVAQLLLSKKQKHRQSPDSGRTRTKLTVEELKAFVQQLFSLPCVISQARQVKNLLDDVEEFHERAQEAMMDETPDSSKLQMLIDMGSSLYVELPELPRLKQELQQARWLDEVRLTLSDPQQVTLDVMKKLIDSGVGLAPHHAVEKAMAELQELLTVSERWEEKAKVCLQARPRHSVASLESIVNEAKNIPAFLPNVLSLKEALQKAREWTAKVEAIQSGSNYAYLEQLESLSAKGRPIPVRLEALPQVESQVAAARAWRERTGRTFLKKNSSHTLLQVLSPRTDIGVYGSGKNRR
Description: The enzymatic assay of Jarid1A activity is based upon Time Resolved-Fluorescence Resonance Energy Transfer (TR-FRET) detection.

FBXL10 = FBXL10 (Homo sapiens (Human), UniProt Q8NHM5); assay: FBXL10 in vitro enzyme inhibition assay (AlphaScreen)
FBXL10, sequence (Q8NHM5 1-650): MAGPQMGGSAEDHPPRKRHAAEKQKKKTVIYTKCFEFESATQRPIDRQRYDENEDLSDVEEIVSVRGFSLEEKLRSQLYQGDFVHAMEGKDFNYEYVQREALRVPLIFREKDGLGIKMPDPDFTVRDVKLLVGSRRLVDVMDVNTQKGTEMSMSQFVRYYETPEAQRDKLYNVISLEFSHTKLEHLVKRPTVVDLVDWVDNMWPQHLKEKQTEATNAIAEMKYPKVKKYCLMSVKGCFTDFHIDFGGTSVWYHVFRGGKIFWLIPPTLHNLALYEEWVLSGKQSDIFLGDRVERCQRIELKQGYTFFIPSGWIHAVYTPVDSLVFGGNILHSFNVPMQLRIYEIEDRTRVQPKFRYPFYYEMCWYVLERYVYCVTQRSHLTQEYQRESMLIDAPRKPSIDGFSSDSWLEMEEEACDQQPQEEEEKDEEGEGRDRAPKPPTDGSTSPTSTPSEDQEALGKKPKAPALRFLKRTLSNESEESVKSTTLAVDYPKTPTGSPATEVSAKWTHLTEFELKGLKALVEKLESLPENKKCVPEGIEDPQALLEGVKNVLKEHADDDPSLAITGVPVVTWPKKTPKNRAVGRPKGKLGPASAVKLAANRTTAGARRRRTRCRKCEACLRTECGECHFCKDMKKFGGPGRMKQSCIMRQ
Outline: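 AlphaScreen read-out of H3K36me1 product, detected with anti-H3K36me1 antibody plus streptavidin donor and Protein A acceptor beads (final 10 μg/ml) in 50 mM HEPES pH 7.3, 10 mM NaCl, 0.005% Brij35, 5 mM EDTA, 2 mg/ml BSA. Beads incubated 2 h to overnight at room temperature; IC50 derived from AlphaScreen signal.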

Jarid1B = Jarid1B (Homo sapiens (Human), UniProt Q9UGL1); assay: Jarid1B in vitro enzyme inhibition assay (TR-FRET)
Jarid1B, sequence (Q9UGL1 2-751): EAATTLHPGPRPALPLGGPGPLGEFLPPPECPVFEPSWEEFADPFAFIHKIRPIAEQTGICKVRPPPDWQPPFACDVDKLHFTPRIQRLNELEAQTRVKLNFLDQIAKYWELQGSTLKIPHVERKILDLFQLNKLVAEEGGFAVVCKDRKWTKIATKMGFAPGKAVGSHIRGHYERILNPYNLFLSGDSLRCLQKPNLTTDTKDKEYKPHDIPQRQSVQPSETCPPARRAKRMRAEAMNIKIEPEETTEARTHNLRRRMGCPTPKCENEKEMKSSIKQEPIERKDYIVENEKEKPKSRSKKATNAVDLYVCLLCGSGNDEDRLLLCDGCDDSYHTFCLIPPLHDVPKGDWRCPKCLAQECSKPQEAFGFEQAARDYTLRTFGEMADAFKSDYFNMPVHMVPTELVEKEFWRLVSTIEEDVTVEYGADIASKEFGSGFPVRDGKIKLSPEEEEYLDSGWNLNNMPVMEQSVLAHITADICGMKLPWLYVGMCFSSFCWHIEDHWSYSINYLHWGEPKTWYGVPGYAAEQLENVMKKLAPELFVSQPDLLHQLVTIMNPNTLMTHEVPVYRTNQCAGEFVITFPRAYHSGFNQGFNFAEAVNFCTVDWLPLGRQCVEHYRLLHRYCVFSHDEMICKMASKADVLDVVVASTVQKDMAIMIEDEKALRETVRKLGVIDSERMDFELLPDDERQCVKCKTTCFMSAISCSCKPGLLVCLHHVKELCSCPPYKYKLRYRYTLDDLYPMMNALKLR
Description: This assay determines the ability of a test compound to inhibit Jarid1A, Jarid1B, JMJD2C, and JMJD2A demethylase activity.
The ability of test compounds to inhibit the activity of Jarid1B was determined in 384-well plate format under the following reaction conditions: 0.8 nM Jarid1B, 300 nM H3K4me3-biotin labeled peptide (Anaspec cat #64357), 2 μM alpha-ketoglutaric acid in assay buffer of 50 mM HEPES, pH7.3, 0.005% Brij35, 0.5 mM TCEP, 0.2 mg/ml BSA, 50 μM sodium L-ascorbate, and 2 μM ammonium iron(II) sulfate. Reaction product was determined quantitatively by TR-FRET after the addition of detection reagent Phycolink Streptavidin-allophycocyanin (Prozyme) and Europium-anti-mono- or di-methylated histone H3 lysine 4 (H3K4me1-2) antibody (PerkinElmer) in the presence of 5 mM EDTA in LANCE detection buffer (PerkinElmer) at a final concentration of 25 nM and 1 nM, respectively.
The assay reaction was initiated by the following: 2 μl of the mixture of 900 nM H3K4me3-biotin labeled peptide and 6 μM alpha-ketoglutaric acid with 2 μl of 11-point serial diluted inhibitor in 3% DMSO was added to each well of the plate, followed by the addition of 2 μl of 2.4 nM Jarid1B to initiate the reaction. The reaction mixture was incubated at room temperature for 30 minutes, and terminated by the addition of 6 μl of 5 mM EDTA in LANCE detection buffer containing 50 nM Phycolink Streptavidin-allophycocyanin and 2 nM Europium-anti-H3K4me1-2 antibody. Plates were read by EnVisionMultilabel Reader in TR-FRET mode (excitation at 320 nm, emission at 615 nm and 665 nm) after 1 hour incubation at room temperature. A ratio was calculated (665/615) for each well and fitted to determine inhibition constant (IC50).

JMJD2C, sequence (Q9H3R0 2-372): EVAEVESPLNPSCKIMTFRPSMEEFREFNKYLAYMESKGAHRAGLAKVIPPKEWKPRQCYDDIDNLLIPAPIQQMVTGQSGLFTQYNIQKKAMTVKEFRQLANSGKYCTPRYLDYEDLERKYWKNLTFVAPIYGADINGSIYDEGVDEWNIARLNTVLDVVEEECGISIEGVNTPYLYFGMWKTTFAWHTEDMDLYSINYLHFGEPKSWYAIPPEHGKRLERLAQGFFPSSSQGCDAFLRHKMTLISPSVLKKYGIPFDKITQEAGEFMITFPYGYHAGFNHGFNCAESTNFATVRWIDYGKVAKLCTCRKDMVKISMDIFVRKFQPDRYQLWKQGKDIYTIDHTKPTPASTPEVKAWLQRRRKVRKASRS
JMJD2A, sequence (O75164 1-350): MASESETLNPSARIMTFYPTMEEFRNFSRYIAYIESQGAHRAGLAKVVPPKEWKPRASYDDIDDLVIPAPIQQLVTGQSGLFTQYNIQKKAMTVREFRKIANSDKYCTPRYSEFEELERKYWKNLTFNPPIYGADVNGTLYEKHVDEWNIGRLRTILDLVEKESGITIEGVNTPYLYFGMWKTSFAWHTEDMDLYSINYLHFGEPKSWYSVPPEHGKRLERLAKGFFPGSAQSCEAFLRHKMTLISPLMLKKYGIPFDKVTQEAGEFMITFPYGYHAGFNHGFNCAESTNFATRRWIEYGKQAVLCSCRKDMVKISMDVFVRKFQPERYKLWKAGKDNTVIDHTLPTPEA

| Structure (SMILES) | IC50 (JMJD2C) | IC50 (JMJD2A) | IC50 (Jarid1A) | IC50 (FBXL10) | IC50 (Jarid1B) |
| --- | --- | --- | --- | --- | --- |
| CN(CCn1cnc(-c2cc(C(=O)O)ccn2)c1)Cc1ccc(F)cc1 [Example 38, 2-[1-[2-[(4-fluorophenyl)methyl-methylamino]ethyl]imidazol-4-yl]pyridine-4-carboxylic acid] | ≤ 100 nM | ≤ 100 nM | ≤ 100 nM | ≤ 100 nM | ≤ 100 nM |
| CN(C)CCOCCn1cnc(-c2cc(C(=O)O)ccn2)c1 [Example 48, 2-(1-{2-[2-(dimethylamino)ethoxy]ethyl}-1H-imidazol-4-yl)pyridine-4-carboxylic acid] | ≤ 100 nM | ≤ 100 nM | ≤ 100 nM | 100 to 1000 nM | ≤ 100 nM |
| CN1CCC(Cn2cnc(-c3cc(C(=O)O)ccn3)c2)CC1 [Example 50, 2-{1-[(1-methylpiperidin-4-yl)methyl]-1H-imidazol-4-yl}pyridine-4-carboxylic acid] | ≤ 100 nM | ≤ 100 nM | ≤ 100 nM | 1000 to 10000 nM | ≤ 100 nM |
| CN(CCn1cnc(-c2cc(C(=O)O)ccn2)c1)c1ccccc1 [Example 58, 2-(1-{2-[methyl(phenyl)amino]ethyl}-1H-imidazol-4-yl)pyridine-4-carboxylic acid] | 100 to 1000 nM | 100 to 1000 nM | ≤ 100 nM | ≤ 100 nM | ≤ 100 nM |
| CN(CCn1cnc(-c2cc(C(=O)O)ccn2)c1)CC1CC1 [Example 59, 2-(1-{2-[(cyclopropylmethyl)(methyl)amino]ethyl}-1H-imidazol-4-yl)pyridine-4-carboxylic acid] | ≤ 100 nM | ≤ 100 nM | ≤ 100 nM | 100 to 1000 nM | ≤ 100 nM |
| O=C(O)c1ccnc(-c2cn(CCN3CCCC3=O)cn2)c1 [Example 60, 2-{1-[2-(2-oxopyrrolidin-1-yl)ethyl]-1H-imidazol-4-yl}pyridine-4-carboxylic acid] | 100 to 1000 nM | ≤ 100 nM | ≤ 100 nM | ≤ 100 nM | ≤ 100 nM |
| c1cc(-c2nn[nH]n2)cc(-c2cn(CCN3CCCC3)cn2)n1 [Example 63, 2-{1-[2-(pyrrolidin-1-yl)ethyl]-1H-imidazol-4-yl}-4-(2H-tetrazol-5-yl)pyridine] | 100 to 1000 nM | 1000 to 10000 nM | ≤ 100 nM | 100 to 1000 nM | ≤ 100 nM |
| CN(CCn1cnc(-c2cc(C(=O)NC#N)ccn2)c1)CC1CC1 [Example 64, N-cyano-2-(1-{2-[(cyclopropylmethyl)(methyl)amino]ethyl}-1H-imidazol-4-yl)pyridine-4-carboxamide] | 100 to 1000 nM | > 10000 nM | ≤ 100 nM | > 10000 nM | ≤ 100 nM |
| Cc1cccc(CN(C)CCn2cnc(-c3cc(C(=O)O)ccn3)c2)c1 [Example 66, 2-[1-[2-[methyl-[(3-methylphenyl)methyl]amino]ethyl]imidazol-4-yl]pyridine-4-carboxylic acid] | ≤ 100 nM | ≤ 100 nM | ≤ 100 nM | ≤ 100 nM | ≤ 100 nM |
| Cc1ccc(CN(C)CCn2cnc(-c3cc(C(=O)O)ccn3)c2)cc1 [Example 67, 2-[1-[2-[methyl-[(4-methylphenyl)methyl]amino]ethyl]imidazol-4-yl]pyridine-4-carboxylic acid] | ≤ 100 nM | ≤ 100 nM | ≤ 100 nM | ≤ 100 nM | ≤ 100 nM |
| CN(CCn1cnc(-c2cc(C(=O)O)ccn2)c1)Cc1ccc(C(F)(F)F)cc1 [Example 68, 2-[1-[2-[methyl-[[4-(trifluoromethyl)phenyl]methyl]amino]ethyl]imidazol-4-yl]pyridine-4-carboxylic acid] | ≤ 100 nM | ≤ 100 nM | ≤ 100 nM | ≤ 100 nM | ≤ 100 nM |
| CN(CCn1cnc(-c2cc(C(=O)O)ccn2)c1)Cc1cccc(F)c1 [Example 69, 2-[1-[2-[(3-fluorophenyl)methyl-methylamino]ethyl]imidazol-4-yl]pyridine-4-carboxylic acid] | ≤ 100 nM | ≤ 100 nM | ≤ 100 nM | ≤ 100 nM | ≤ 100 nM |
| CCN(CCn1cnc(-c2cc(C(=O)O)ccn2)c1)Cc1ccc(F)cc1 [Example 70, 2-[1-[2-[ethyl-[(4-fluorophenyl)methyl]amino]ethyl]imidazol-4-yl]pyridine-4-carboxylic acid] | ≤ 100 nM | ≤ 100 nM | ≤ 100 nM | ≤ 100 nM | ≤ 100 nM |
| O=C(O)c1ccnc(-c2cn(CCN3Cc4ccc(C(F)(F)F)cc4C3)cn2)c1 [Example 84, 2-[1-[2-[5-(trifluoromethyl)-1,3-dihydroisoindol-2-yl]ethyl]imidazol-4-yl]pyridine-4-carboxylic acid] | ≤ 100 nM |  | ≤ 100 nM | ≤ 100 nM | ≤ 100 nM |
| O=C(O)c1ccnc(-c2cn(CCN(Cc3ccc(Cl)cc3)C3CC3)cn2)c1 [Example 85, 2-[1-[2-[(4-chlorophenyl)methyl-cyclopropylamino]ethyl]imidazol-4-yl]pyridine-4-carboxylic acid] | 100 to 1000 nM |  | ≤ 100 nM | ≤ 100 nM | ≤ 100 nM |
| O=C(O)c1ccnc(-c2cn(CCN(Cc3ccc(Cl)c(Cl)c3)C3CC3)cn2)c1 [Example 86, 2-[1-[2-[cyclopropyl-[(3,4-dichlorophenyl)methyl]amino]ethyl]imidazol-4-yl]pyridine-4-carboxylic acid] | 100 to 1000 nM |  | ≤ 100 nM | ≤ 100 nM | ≤ 100 nM |
| CN(CCn1cnc(-c2cc(C(=O)O)ccn2)c1)c1ccc(Cl)cc1 [Example 87, 2-[1-[2-(4-chloro-N-methylanilino)ethyl]imidazol-4-yl]pyridine-4-carboxylic acid] | 100 to 1000 nM | 100 to 1000 nM | ≤ 100 nM | ≤ 100 nM | ≤ 100 nM |
| O=C(O)c1ccnc(-c2cn(CCN3CCCc4cc(Cl)ccc43)cn2)c1 [Example 89, 2-[1-[2-(6-chloro-3,4-dihydro-2H-quinolin-1-yl)ethyl]imidazol-4-yl]pyridine-4-carboxylic acid] | 100 to 1000 nM | 100 to 1000 nM | ≤ 100 nM | ≤ 100 nM | ≤ 100 nM |
| O=C(O)c1ccnc(-c2cn(CCN3CCCc4cc(F)ccc43)cn2)c1 [Example 90, 2-[1-[2-(6-fluoro-3,4-dihydro-2H-quinolin-1-yl)ethyl]imidazol-4-yl]pyridine-4-carboxylic acid] | 100 to 1000 nM | ≤ 100 nM | ≤ 100 nM | ≤ 100 nM | ≤ 100 nM |
| O=C(O)c1ccnc(-c2cn(CCN3CCc4cc(F)ccc43)cn2)c1 [Example 91, 2-[1-[2-(5-fluoro-2,3-dihydroindol-1-yl)ethyl]imidazol-4-yl]pyridine-4-carboxylic acid] | 100 to 1000 nM | 100 to 1000 nM | ≤ 100 nM | 100 to 1000 nM | ≤ 100 nM |
| CCC(c1ccccc1)n1cnc(-c2cc(C(=O)O)ccn2)c1 (stereo not drawn) [Example 107, 2-[1-(1-phenylpropyl)imidazol-4-yl]pyridine-4-carboxylic acid] | 100 to 1000 nM | ≤ 100 nM | ≤ 100 nM | ≤ 100 nM | ≤ 100 nM |
| CC(C)C(c1ccccc1)n1cnc(-c2cc(C(=O)O)ccn2)c1 (stereo not drawn) [Example 108, 2-[1-(2-methyl-1-phenylpropyl)imidazol-4-yl]pyridine-4-carboxylic acid] | 100 to 1000 nM | 100 to 1000 nM | ≤ 100 nM | ≤ 100 nM | ≤ 100 nM |
| O=C(O)c1ccnc(-c2cn(C3CCc4ccc(F)cc43)cn2)c1 (stereo not drawn) [Example 109, 2-[1-(6-fluoro-2,3-dihydro-1H-inden-1-yl)imidazol-4-yl]pyridine-4-carboxylic acid] | 1000 to 10000 nM | 100 to 1000 nM | ≤ 100 nM | ≤ 100 nM | ≤ 100 nM |
| O=C(O)c1ccnc(-c2cn(CCc3cccc(Cl)c3)cn2)c1 [Example 113, 2-[1-[2-(3-chlorophenyl)ethyl]imidazol-4-yl]pyridine-4-carboxylic acid] | 100 to 1000 nM |  | ≤ 100 nM | ≤ 100 nM | ≤ 100 nM |
| O=C(O)c1ccnc(-c2cn(CCC3CCCCC3)cn2)c1 [Example 114, 2-[1-(2-cyclohexylethyl)imidazol-4-yl]pyridine-4-carboxylic acid] | 100 to 1000 nM |  | ≤ 100 nM | ≤ 100 nM | ≤ 100 nM |
| O=C(O)c1ccnc(-c2cn(CC3CCCCC3)cn2)c1 [Example 115, 2-[1-(cyclohexylmethyl)imidazol-4-yl]pyridine-4-carboxylic acid] | 100 to 1000 nM |  | ≤ 100 nM | ≤ 100 nM | ≤ 100 nM |
| c1ccc2c(CCn3cnc(-c4cc(-c5nn[nH]n5)ccn4)c3)cccc2c1 [Example 142, 2-[1-(2-naphthalen-1-ylethyl)imidazol-4-yl]-4-(2H-tetrazol-5-yl)pyridine] | 1000 to 10000 nM | > 10000 nM |  | ≤ 100 nM | ≤ 100 nM |
| c1ccc2c(c1)CCCC2Cn1cnc(-c2cc(-c3nn[nH]n3)ccn2)c1 (stereo not drawn) [Example 143, 2-[1-(1,2,3,4-tetrahydronaphthalen-1-ylmethyl)imidazol-4-yl]-4-(2H-tetrazol-5-yl)pyridine] | 1000 to 10000 nM | > 10000 nM |  | ≤ 100 nM | 100 to 1000 nM |
